Calls of active or inactive are those of the source.
Columns and labels:
[1] = Luminescence Cell-Based Dose Confirmation HTS to Identify Activators of 5'UTR Stem-Loop Driven Alpha-Synuclein mRNA Translation in H4 Neuroglioblastoma Cells. [Related pubchem assays: 1829 (Project Summary), 1814 (Primary HTS)]; assay type: functional
[2] = Luminescence Cell-Based Dose Response HTS to Identify Activators of Luciferase Translation or Activity in H4 […] Cells. [Related pubchem assays: 1829 (Project Summary), 1814 (Primary HTS)]; assay type: functional
H4 = assay: Luminescence Cell-Based Dose Response HTS to Identify Activators of 5'UTR Stem-Loop Driven Prion Protein mRNA Translation in H4 Neuroglioblastoma Cells. [Related pubchem assays: 1829 (Project Summary), 1814 (Primary HTS)]; assay type: functional; conditions: Homo sapiens
Prothrombin = Prothrombin (Homo sapiens, UniProt P00734); assay: Thrombin 1536 HTS Dose Response Confirmation. [Related pubchem assays: 1046 (Thrombin 1536 HTS; hits were confirmed in this assay)]; assay type: functional
[3] = luciferase reporter signal suppression in cells – H4 neuroglioma cells, luminescence, dose response (AID 1990); assay type: functional, cell-based
[4] = tested on: Streptococcus sp. 'group A'; assay: Streptococcus pyogenes SK(-)GAS viability under kanamycin – luminescence, BacTiterGlo, confirmation, counter-screen for streptokinase expression inhibitor project, dose response (AID 1900); assay type: functional, organism-based
[5] = Luminescence Cell-Based Dose Response HTS to Identify Inhibitors of 5'UTR Stem-Loop Driven Prion Protein mRNA Translation in H4 Neuroglioblastoma Cells. [Related pubchem assays: 1827 (Project Summary), 1813 (Primary HTS)]; assay type: functional
[6] = alpha-synuclein stem-loop luciferase translation blockers – H4 neuroglioma cells, luminescence, confirmation (AID 1988); assay type: functional, cell-based
Streptokinase A = biological target: T1, Streptokinase A (Streptococcus pyogenes serotype M1, UniProt P10520); assay: viability-normalized secreted streptokinase activity reduction – plasminogen activation absorbance, OD405, dose response (AID 1914); assay type: functional, Streptococcus pyogenes M1 GAS;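 also: secreted streptokinase activity via plasminogen activation per viability signal from cell pellet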
T1 sequence (P10520 whole entry): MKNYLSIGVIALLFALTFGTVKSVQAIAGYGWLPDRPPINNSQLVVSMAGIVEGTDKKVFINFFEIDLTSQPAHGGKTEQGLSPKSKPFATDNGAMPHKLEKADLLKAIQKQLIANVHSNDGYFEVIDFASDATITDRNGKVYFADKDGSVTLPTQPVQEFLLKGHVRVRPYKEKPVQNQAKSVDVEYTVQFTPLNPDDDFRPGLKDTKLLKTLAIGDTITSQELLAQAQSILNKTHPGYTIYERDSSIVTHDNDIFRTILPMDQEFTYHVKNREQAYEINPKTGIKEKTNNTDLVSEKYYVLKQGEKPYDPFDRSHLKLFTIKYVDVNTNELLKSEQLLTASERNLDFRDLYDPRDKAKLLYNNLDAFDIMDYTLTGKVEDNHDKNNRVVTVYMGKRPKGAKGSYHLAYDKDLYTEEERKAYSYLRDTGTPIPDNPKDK

[7] = viability of PTEN-deleted HCT116 cells – cell-based, HCT116 PTEN knockout, dose response (AID 1047); assay type: functional;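 also: HCT116 colon tumor cells with PTEN knocked out; cells exposed to compound for 60 hours before readout; potency for loss of cell viability measured by luminescence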
[8] = viability of HCT116 lacking mutant beta-catenin – cell-based, human colon tumor, dose response (AID 1045); assay type: functional;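 also: HCT116 colon tumor cells with beta catenin knocked out; cells exposed to compound for 60 hours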
[9] = biological target: Induced myeloid leukemia cell differentiation protein Mcl-1 (Homo sapiens, UniProt Q07820); assay type: functional
Streptococcus = assay: GAS UMAA2166 growth inhibition – luminescence, BacTiterGlo, counter-screen for streptokinase expression inhibitor project, dose response (AID 1915); assay type: functional, organism-based;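 also: potency for reduction of bacterial viability or growth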
INS1 = assay: INS-1E survival protection against cytokine death – cell-based, luminescence, retest, dose response (AID 449756); assay type: functional; conditions: Rattus norvegicus;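 also: cell death triggered by IL-1 beta plus TNF-alpha plus IFN-gamma mixture; protective hits raise ATP signal compared with cytokine alone wells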
[10] = reduction of Shn3 3'UTR-driven luciferase in osteoblasts – cell-based, Clone20 osteoblasts, firefly luciferase, cherry-picked, dose response (AID 624132); assay type: functional;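 also: firefly luciferase luminescence from reporter carrying the Shn3 3'UTR in osteoblasts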
[11] = loss of viability in HepG2 cells – cell-based, CellTiter-Glo, cherry-picked, cytotoxicity control for Shn3 inhibitor project, dose response (AID 624134); assay type: functional
[12] = non-specific 3'UTR reporter inhibition in Clone20-Shn3RL – cell-based, Renilla luciferase, cherry-picked, counter-screen for Shn3 inhibitor project, dose response (AID 624133); assay type: functional
Paired box protein Pax-8 = Paired box protein Pax-8 (Homo sapiens, UniProt Q06710); assay: PAX8 transcriptional activity inhibition in RMG-I – RMG-I cells, luciferase, cherry-pick, dose response (AID 687027); assay type: functional, cell-based;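 also: luciferase reporter driven by Pax8 target thyroperoxidase promoter measured by SteadyGlo luminescence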
Leucine aminopeptidase = biological target: T2, Leucine aminopeptidase (Plasmodium falciparum 3D7, UniProt Q8IL11); assay: P. falciparum M17LAP inhibitors, primary screen, biochemical, fluorogenic H-Leu-NHMec substrate, 1536-well (AID 1619); assay type: functional
T2 sequence (Q8IL11 whole entry): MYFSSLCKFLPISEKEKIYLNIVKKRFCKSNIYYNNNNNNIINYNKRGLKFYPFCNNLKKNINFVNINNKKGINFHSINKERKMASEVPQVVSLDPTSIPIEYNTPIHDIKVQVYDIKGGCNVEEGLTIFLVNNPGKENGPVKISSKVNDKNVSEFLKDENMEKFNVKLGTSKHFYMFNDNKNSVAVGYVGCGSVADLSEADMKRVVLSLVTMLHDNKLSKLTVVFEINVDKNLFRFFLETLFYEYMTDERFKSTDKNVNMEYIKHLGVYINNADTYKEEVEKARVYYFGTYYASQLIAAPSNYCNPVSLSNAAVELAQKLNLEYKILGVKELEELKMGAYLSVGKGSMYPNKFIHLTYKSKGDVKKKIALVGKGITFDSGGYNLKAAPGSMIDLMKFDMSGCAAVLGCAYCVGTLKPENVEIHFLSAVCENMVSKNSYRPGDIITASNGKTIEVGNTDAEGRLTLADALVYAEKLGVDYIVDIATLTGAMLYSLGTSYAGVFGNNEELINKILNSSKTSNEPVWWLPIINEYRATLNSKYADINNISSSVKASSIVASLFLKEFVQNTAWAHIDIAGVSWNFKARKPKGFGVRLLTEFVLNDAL

Aminopeptidase N = biological target: T3, Aminopeptidase N (Plasmodium falciparum FcB1/Columbia, UniProt O96935); assay: malaria alanyl aminopeptidase activity blockers – biochemical, fluorogenic H-Leu-NHMec substrate, 1536-well (AID 1445); design: species or system Plasmodium falciparum 3D7, 3D7
T3 sequence (O96935 whole entry): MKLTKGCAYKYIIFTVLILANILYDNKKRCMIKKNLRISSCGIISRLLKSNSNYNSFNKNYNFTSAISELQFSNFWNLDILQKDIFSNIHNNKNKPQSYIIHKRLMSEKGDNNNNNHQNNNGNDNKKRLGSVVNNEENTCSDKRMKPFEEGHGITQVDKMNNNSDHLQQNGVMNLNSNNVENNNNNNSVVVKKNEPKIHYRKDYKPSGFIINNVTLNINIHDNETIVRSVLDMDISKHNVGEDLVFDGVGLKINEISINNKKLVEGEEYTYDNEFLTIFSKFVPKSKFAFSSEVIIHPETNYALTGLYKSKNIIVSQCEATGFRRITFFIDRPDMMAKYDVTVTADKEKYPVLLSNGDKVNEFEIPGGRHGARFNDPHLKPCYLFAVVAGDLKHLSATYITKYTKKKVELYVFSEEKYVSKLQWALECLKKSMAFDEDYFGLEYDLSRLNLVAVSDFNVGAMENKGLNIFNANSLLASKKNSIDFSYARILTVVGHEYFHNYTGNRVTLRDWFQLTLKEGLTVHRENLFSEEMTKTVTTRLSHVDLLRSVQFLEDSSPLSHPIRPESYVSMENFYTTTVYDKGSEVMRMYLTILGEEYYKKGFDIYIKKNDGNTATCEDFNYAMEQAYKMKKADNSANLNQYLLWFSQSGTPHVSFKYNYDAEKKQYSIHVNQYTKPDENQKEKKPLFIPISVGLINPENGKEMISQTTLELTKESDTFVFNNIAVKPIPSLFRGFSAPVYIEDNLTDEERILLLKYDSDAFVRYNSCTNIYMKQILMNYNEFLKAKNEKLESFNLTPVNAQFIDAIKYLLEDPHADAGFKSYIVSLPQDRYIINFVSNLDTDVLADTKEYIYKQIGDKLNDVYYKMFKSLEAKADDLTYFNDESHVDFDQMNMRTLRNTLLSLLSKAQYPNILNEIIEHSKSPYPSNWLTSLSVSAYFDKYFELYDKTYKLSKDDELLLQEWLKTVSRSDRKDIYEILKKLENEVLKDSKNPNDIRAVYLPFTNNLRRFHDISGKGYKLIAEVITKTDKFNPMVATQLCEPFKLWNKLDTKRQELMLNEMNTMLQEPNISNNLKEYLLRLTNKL

[13] = microbe, parasite or virus in culture; assay type: functional; conditions: Mycobacterium tuberculosis
[14] = biological target: T4, Replicative DNA helicase DnaB (Mycobacterium tuberculosis, UniProt P9WMR3); assay: DnaB intein splicing inhibitors, dose response, biochemical, cell-free fluorescence (AID 449749); assay type: functional
T4 sequence (P9WMR3 whole entry): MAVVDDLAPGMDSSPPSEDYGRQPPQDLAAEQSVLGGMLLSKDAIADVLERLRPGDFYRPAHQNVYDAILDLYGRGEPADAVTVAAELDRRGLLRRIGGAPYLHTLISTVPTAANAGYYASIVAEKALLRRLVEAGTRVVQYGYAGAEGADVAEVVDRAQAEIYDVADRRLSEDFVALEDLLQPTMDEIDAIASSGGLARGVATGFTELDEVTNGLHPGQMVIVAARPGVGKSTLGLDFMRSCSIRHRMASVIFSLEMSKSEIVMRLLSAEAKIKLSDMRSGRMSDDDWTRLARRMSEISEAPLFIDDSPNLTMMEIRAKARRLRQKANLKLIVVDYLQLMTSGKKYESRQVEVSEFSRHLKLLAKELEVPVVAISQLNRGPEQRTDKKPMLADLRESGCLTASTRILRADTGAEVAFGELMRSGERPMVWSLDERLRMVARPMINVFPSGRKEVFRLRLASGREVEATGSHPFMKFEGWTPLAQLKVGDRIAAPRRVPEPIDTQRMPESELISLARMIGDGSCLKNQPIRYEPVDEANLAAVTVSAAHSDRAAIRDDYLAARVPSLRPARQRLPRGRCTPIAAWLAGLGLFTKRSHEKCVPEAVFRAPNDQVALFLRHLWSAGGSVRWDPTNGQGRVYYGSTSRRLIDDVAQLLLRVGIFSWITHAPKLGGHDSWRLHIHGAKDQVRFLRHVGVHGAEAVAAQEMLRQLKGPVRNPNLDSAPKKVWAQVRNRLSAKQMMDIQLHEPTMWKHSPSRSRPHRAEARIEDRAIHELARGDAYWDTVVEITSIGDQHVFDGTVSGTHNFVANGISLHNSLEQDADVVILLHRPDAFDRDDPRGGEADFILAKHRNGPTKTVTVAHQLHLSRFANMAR

Protein RecA = biological target: T5, Protein RecA (Mycobacterium tuberculosis, UniProt P9WHJ3); assay: Fluorescence Cell-Free Homogeneous Dose Retest to Identify Inhibitors of RecA-Intein Splicing Activity. [Related pubchem assays (depositor defined):AID2097, AID2223, AID489010, AID492950]; assay type: functional
T5 sequence (P9WHJ3 whole entry): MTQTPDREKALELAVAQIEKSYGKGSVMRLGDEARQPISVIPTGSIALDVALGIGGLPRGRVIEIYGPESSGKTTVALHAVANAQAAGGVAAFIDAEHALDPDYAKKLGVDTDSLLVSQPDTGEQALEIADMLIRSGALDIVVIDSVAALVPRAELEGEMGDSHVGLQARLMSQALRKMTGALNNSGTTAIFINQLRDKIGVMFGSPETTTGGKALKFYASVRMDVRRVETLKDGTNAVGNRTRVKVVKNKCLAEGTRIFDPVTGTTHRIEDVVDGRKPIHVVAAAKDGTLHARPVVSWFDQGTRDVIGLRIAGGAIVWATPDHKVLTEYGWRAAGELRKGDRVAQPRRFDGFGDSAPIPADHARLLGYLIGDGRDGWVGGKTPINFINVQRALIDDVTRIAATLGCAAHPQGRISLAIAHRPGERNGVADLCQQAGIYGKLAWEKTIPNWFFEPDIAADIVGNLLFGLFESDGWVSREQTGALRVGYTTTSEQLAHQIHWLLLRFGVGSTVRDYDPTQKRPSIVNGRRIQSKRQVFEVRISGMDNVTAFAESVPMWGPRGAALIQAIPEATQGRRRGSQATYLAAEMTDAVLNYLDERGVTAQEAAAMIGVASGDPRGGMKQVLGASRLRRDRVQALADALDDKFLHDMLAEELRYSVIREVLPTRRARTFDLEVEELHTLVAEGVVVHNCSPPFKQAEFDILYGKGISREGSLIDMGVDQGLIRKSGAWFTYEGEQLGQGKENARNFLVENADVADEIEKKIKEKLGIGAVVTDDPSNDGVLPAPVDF

Induced myeloid leukemia cell differentiation protein Mcl-1, sequence (Q07820 whole entry): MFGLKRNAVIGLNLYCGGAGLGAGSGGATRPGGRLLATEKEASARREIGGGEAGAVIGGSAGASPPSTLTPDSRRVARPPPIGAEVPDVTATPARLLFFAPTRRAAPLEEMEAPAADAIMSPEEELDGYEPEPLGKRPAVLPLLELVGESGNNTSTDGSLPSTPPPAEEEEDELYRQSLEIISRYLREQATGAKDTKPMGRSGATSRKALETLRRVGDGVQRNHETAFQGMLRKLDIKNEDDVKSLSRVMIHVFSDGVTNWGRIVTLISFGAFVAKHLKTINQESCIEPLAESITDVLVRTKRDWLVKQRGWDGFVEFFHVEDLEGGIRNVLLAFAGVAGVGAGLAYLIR
Paired box protein Pax-8, sequence (Q06710 whole entry): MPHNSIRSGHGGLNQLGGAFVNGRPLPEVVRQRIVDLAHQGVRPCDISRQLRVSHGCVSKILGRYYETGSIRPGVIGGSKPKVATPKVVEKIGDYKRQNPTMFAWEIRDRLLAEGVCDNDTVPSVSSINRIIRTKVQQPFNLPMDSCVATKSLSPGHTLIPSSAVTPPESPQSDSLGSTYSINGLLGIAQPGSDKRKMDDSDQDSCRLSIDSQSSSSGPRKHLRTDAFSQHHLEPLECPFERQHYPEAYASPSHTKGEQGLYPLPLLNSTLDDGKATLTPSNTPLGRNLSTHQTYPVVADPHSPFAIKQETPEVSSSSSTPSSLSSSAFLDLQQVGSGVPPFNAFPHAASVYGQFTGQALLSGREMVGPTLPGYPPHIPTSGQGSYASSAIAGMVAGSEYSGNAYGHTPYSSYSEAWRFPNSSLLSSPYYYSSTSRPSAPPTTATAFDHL

## O=C(c1ccco1)n1nc(-c2ccccc2)nc1SCc1ccccc1
[1]
  EC50: > 120 µM (not active)
[2]
  EC50: 40.1 µM (active)
H4
  EC50: 19.6 µM (active)
Prothrombin
  IC50: 0.695 µM (active)

## O=C(Nc1ccc([N+](=O)[O-])cc1)Nc1nc(-c2ccc(Cl)s2)cs1
[3]
  EC50: 8.65 µM (active)
[4]
  EC50: 6.16 µM (active)
[5]
  EC50: 8.31 µM (active)
[6]
  EC50: 8.39 µM (active)
Streptokinase A
  EC50: 44.8 µM (inconclusive)
[7]
  EC50: 0.8 µM (active)
[8]
  EC50: 0.991 µM (active)
[9]
  IC50: 5.32 µM (active)
Streptococcus
  EC50: 81.8 µM (active)
INS1
  AC50: 1.54 µM (active)
[10]
  AC50: 3.19 µM (active)
[11]
  AC50: 4.82 µM (active)
[12]
  AC50: 3.04 µM (active)
Paired box protein Pax-8
  AC50: 2.42 µM (active)

## CC1=C(C)C(=O)C(CCCCC#CCCCC#CCO)=C(C)C1=O [DOCEBENONE]
Leucine aminopeptidase
  IC50: 53.4 µM (active)

## CCN(CC)S(=O)(=O)N1CCC(C(=O)NCC2COc3ccccc3O2)CC1 (stereo not drawn)
Leucine aminopeptidase
  IC50: 11.3 µM (active)

## COC(=O)c1ccc(Cl)c(NS(=O)(=O)c2ccc3c(c2)OCCO3)c1
Aminopeptidase N
  IC50: 29.7 µM (active)

## COc1ccc(CCNC(=O)COC(=O)Cc2cccc3ccccc23)cc1
[9]
  IC50: 26.3 µM (not active)

## Cc1ccc(NC(=O)CSCc2nc(O)c3nnn(Cc4ccc(F)cc4)c3n2)c(C)c1
Leucine aminopeptidase
  IC50: 2.06 µM (active)

## Nc1c(C(=O)O)cnc2c(-c3ccc(Cl)cc3)cnn12
Aminopeptidase N
  IC50: 42.4 µM (active)
[13]
  CC50: 24.6 µM (active)

## CCCCc1ccc(NC(=O)CSCc2cc(=O)[nH][nH]2)cc1
Leucine aminopeptidase
  IC50: 12.4 µM (active)
[14]
  AC50: 3.57 µM (active)
Protein RecA
  EC50: 1.82 µM (active)

— ChEMBL document CHEMBL1201862, “PubChem BioAssay data set” (2004)
